The target in one series is T1, Flt3 (h) (Homo sapiens, UniProt P36888).
T1 sequence (P36888 27-993): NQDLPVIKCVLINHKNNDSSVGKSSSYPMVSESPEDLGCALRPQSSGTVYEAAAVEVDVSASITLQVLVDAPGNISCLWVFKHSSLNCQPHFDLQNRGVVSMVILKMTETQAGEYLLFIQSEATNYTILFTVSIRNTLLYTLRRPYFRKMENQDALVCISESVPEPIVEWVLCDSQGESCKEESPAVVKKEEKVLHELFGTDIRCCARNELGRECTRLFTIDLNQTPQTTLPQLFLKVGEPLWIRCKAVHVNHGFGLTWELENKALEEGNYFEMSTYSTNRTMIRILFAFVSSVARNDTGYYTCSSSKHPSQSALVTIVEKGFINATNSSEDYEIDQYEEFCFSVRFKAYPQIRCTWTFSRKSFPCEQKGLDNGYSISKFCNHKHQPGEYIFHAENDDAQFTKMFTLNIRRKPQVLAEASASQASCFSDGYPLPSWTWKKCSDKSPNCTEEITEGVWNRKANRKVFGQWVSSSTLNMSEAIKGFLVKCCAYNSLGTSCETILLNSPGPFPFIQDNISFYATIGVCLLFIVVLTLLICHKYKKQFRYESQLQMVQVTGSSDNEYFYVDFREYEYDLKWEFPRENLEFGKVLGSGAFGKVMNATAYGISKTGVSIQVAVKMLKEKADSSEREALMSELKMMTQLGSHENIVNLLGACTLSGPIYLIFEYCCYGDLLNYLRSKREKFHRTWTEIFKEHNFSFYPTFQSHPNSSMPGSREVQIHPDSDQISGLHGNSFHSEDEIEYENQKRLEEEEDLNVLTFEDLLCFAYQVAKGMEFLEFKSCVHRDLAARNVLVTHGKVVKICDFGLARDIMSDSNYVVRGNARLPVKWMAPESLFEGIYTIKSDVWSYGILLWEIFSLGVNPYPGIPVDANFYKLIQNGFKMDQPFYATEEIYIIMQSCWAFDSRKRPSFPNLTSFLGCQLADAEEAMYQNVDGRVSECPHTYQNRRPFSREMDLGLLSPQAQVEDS
Nature of the series: FLT3 in vitro peptide-based kinase assay, Protocol 1. The series is classed as biochemical. The method, then: The inhibition of FLT3 kinase was assessed using FLT3 recombinant protein in an in vitro peptide-based kinase assay.
In a final reaction volume of 25 μL, Flt3 (h) (5-10 mU) is incubated with 8 mM MOPS pH 7.0, 0.2 mM EDTA, 50 μM EAIYAAPFAKKK, 10 mM MgAcetate and [g-33P-ATP] (specific activity approx. 500 cpm/pmol, concentration as required). The reaction is initiated by the addition of the MgATP mix. After incubation for 40 minutes at room temperature, the reaction is stopped by the addition of 5 μL of a 3% phosphoric acid solution. 10 μL of the reaction is then spotted onto a P30 filtermat and washed three times for 5 minutes in 75 mM phosphoric acid and once in methanol prior to drying and scintillation counting.

Another series has as its target T2, FLT3 wt (Homo sapiens, UniProt P36888).
T2 construct: purchased Invitrogen Corporation
T2 sequence (P36888 27-993): T1 sequence (P36888 27-993)
In words: radiometric protein kinase assay (33PanQinase Activity Assay) FLT3 wt, Protocol 2. The series is classed as biochemical. The following applies: ATP 3 μM. The method, then: A radiometric protein kinase assay (33PanQinase® Activity Assay) was used for measuring the kinase activity. All kinase assays were performed in 96-well FlashPlates™ from PerkinElmer (Boston, Mass., USA) in a 50 μl reaction volume. The reaction cocktail was pipetted in four steps in the following order: • 20 μl of assay buffer (standard buffer) • 5 μl of ATP solution (in H2O) • 5 μl of test compound (in 10% DMSO) • 10 μl of substrate/10 μl of enzyme solution (premixed)
The assay for FLT3 wt contains 70 mM HEPES-NaOH pH 7.5, 3 mM MgCl2, 3 mM MnCl2, 3 μM Na-orthovanadate, 1.2 mM DTT, ATP (3 μM), [γ-33P]-ATP (approx. 5×1005 cpm per well), protein kinase FLT3 wt (6.1 nM) and substrate (poly(Ala,Glu,Lys,Tyr)6:2:5:1), 0.125 μg/50 μl).
The kinases are obtained from Invitrogen Corporation.
The reaction cocktails were incubated at 30° C. for 60 minutes. The reaction was stopped with 50 μl of 2% (v/v) H3PO4, plates were aspirated and washed two times with 200 μl 0.9% (w/v) NaCl. Incorporation of 33Pi was determined with a microplate scintillation counter.

Broadly, the melting point is the temperature, or range, at which the solid turns liquid. As usually defined, the IC50 is the concentration at which inhibition is half-maximal. A higher IC50 goes with lower potency.

SMILES strings stand for the structures.

For `CN1CCC(C(=O)N2CCOCCNc3ccn4ncc(c4n3)-c3cccc2c3)CC1` [Compound 2], the melting point was > 300 °C. For the same molecule, the concentration for half-maximal inhibition (IC50) against Flt3 (h) was > 1000 nM.

On to `OCc1ccc2cc1OCCOCCNc1ccn3ncc-2c3n1` [Compound 12], for which the melting point is > 300 °C. Further, at Flt3 (h), the IC50 is < 100 nM.

As to `O=C1NCCN(CCO)CCNc2ccn3ncc(c3n2)-c2cccc1c2` [Compound 8], the melting point turned out to be 283.9 °C. The IC50 against Flt3 (h) is < 100 nM. For the molecule `CN(C)CCNC(=O)N1CCNCCOc2cccc(c2)-c2cnn3ccc1nc23` [Compound 11], the melting point was > 300 °C. This molecule returned an IC50 at Flt3 (h) of 100 to 1000 nM.

As to `c1cc2cc(c1)-c1cnn3ccc(nc13)NCCN(CCN1CCOCC1)CCO2` [Compound 5], the melting point was > 300 °C. In addition, the IC50 against Flt3 (h) is < 100 nM. Regarding `NC(=O)c1ccc2cc1OCCNCCNc1ccn3ncc-2c3n1` [Compound 4], the melting point was > 300 °C. For the same molecule, the IC50 against Flt3 (h) is < 100 nM. `O=C1NCCN(C2CC2)CCN(CCO)c2ccn3ncc(c3n2)-c2cccc1c2` [Compound 15] registered an IC50 at Flt3 (h) of 100 to 1000 nM. Molecule `Fc1cc2cc(c1)-c1cnn3ccc(nc13)NCCOCCCO2` [Compound 35] showed a melting point of 234.9 °C. Turning to `O=C1CNCCNc2ccn3ncc(c3n2)-c2cccc(c2)N1` [Compound 31], the IC50 against FLT3 wt is > 1000 nM. On to `CC(C)N1CCNc2ccn3ncc(c3n2)-c2cccc(c2)OCC1` [Compound 6], for which the melting point is > 300 °C. For the same molecule, the IC50 on Flt3 (h) is < 100 nM. `O=C1c2cccc(c2)-c2cnn3ccc(nc23)NCCNCCN1CCO` [Compound 7] had a melting point of 271.6 °C. On Flt3 (h), this molecule showed a concentration for half-maximal inhibition (IC50) of 100 to 1000 nM. Regarding `O=C(NCCF)c1ccc2cc1OCCOCCNc1ccn3ncc-2c3n1` [Compound 20], the melting point was > 300 °C. `c1cc2cc(c1)-c1cnn3ccc(nc13)OCCN(CCCN1CCCC1)CCO2` [Compound 13]: the melting point was > 300 °C. The 50% inhibitory concentration (IC50) on Flt3 (h) is > 1000 nM. Take `c1cc2cc(c1)-c1cnn3ccc(nc13)NCCCNCCO2` [Compound 33]: the IC50 at FLT3 wt fell in the range of 100 to 1000 nM.

With `O=C(NCCCN1CCCC1)N1CCNCCOc2cccc(c2)-c2cnn3ccc1nc23` [Compound 10], the IC50 against Flt3 (h) was < 100 nM. On the same count and under the same terms, to `O=C1NCCNCCN(CCO)c2ccn3ncc(c3n2)-c2cccc1c2` [Compound 14] belongs > 1000 nM.

Regarding `CN1CCNC(=O)c2cccc(c2)-c2cnn3ccc(nc23)NCC1` [Compound 9], the melting point was found to be 287.6 °C. The same molecule displayed an IC50 against Flt3 (h) of 100 to 1000 nM. For the molecule `COc1ccc2cc1OCCNCCNc1ccn3ncc-2c3n1` [Compound 32], at FLT3 wt, the IC50 fell in the range of 100 to 1000 nM. With `O=C1CNCCNc2ccn3ncc(c3n2)-c2cccc(c2)CN1` [Compound 34], on FLT3 wt, the half-inhibitory concentration (IC50) was > 1000 nM. Consider `O=C(O)c1ccc2cc1OCCOCCNc1ccn3ncc-2c3n1` [Compound 1], for which the melting point was > 300 °C. Moreover, the IC50 against Flt3 (h) is < 100 nM. Consider `O=C1NCCCNc2ccn3ncc(c3n2)-c2cccc(c2)N1` [Compound 3], for which the melting point is > 300 °C. Besides, the IC50 at Flt3 (h) was < 100 nM.

Values taken from patent US9370519B2, “Macrocyclic FLT3 kinase inhibitors” (Oncodesign S.A., priority 2011, dated 2016).
